Test results: patent US5770382A, “Tricyclic retinoids, methods for their production and use” (Ligand Pharmaceuticals, Inc., priority 1995, dated 1998)

Experiments:
Format in all cases: cell-based
[1] = target: T1, RARα (Homo sapiens, UniProt P10276); assay: Co-transfection assay, RARα agonist activity; conditions: CV-1 cells, 40 hours; read-out: RARα Pot (potency, EC50)
T1 construct: expressed in transfected cells; host or cells: CV-1 (African green monkey kidney fibroblasts)
T1 sequence (P10276 1-462): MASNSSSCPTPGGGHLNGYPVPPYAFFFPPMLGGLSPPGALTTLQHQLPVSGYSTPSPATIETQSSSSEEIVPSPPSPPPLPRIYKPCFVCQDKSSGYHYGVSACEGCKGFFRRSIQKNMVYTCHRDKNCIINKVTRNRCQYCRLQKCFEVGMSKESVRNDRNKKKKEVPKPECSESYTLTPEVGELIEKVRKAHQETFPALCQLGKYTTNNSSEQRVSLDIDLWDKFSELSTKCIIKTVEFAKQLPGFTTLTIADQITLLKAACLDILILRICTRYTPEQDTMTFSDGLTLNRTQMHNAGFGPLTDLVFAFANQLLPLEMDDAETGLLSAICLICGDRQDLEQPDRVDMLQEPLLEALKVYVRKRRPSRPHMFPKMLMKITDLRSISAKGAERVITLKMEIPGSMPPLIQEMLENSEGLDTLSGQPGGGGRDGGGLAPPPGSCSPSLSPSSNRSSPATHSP

[2] = test system: RXRs; assay: Co-transfection assay, summary for the RXRs
Experimental: Utilizing the "cis-trans" or "co-transfection" assay described by Evans et al., Science, 240:889-95 (May 13, 1988), the disclosure of which is herein incorporated by reference, the retinoid compounds of the present invention were tested and found to have strong, specific activity as either selective RAR agonists, selective RXR agonists, or as pan-agonist activators of both RAR and RXR receptors. This assay is described in further detail in U.S. Pat. Nos. 4,981,784 and 5,071,773, the disclosures of which are incorporated herein by reference.
The co-transfection assay provides a method for identifying functional agonists which mimic, or antagonists which inhibit, the effect of native hormones, and quantifying their activity for responsive IR proteins. In this regard, the co-transfection assay mimics an in vivo system in the laboratory. Importantly, activity in the co-transfection assay correlates very well with known in vivo activity, such that the co-transfection assay functions as a qualitative and quantitative predictor of a tested compounds Ln vivo pharmacology. See, e.g., T. Berger et al. 41 J. Steroid Biochem. Molec. […]
The co-transfection assay can detect small molecule agonists or antagonists of target IRs. […] This activity can be conveniently measured, e.g., by increasing luciferase production, which reflects compound-dependent, IR-mediated increases in reporter transcription. […]

[3] = target: T2, RARγ (Homo sapiens, UniProt P13631); assay: Co-transfection assay, RARγ agonist activity; conditions: CV-1 cells, 40 hours; read-out: RARγ Pot (potency, EC50)
T2 construct: expressed in transfected cells; host or cells: CV-1 (African green monkey kidney fibroblasts)
T2 sequence (P13631 1-454): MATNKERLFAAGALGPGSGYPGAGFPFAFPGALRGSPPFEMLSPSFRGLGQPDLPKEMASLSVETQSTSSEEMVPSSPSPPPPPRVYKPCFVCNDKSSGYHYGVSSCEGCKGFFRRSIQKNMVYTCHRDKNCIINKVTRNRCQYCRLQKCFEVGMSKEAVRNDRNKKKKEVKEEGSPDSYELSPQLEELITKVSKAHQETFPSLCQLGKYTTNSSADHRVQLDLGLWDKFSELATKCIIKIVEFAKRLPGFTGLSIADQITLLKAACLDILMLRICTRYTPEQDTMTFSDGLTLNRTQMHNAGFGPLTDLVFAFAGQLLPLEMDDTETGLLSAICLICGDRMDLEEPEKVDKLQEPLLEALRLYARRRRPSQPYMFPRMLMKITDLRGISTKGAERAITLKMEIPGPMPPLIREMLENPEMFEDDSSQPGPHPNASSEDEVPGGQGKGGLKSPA

[4] = target: T3, RXRα (Homo sapiens, UniProt P19793); assay: Co-transfection assay, RXRα agonist activity; conditions: CV-1 cells, 40 hours; read-out: RXRα Pot (potency, EC50)
T3 construct: expressed in transfected cells; host or cells: CV-1 (African green monkey kidney fibroblasts)
T3 sequence (P19793 1-462): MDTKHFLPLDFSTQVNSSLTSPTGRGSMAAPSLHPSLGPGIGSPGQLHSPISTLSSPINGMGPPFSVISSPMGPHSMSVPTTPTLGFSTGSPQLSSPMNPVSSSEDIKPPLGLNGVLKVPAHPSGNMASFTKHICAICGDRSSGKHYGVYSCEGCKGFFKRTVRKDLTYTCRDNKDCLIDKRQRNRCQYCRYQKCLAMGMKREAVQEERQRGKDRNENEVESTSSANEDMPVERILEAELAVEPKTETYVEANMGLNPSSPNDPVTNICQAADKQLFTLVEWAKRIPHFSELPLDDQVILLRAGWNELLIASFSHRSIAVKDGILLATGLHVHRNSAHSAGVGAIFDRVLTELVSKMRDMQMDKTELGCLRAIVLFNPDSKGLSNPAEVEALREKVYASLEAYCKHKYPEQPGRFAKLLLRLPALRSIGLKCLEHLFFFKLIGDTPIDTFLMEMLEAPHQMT

CC(/C=C/C=C1/CC(C)(C)Oc2cc3c(cc21)C(C)(C)CCC3(C)C)=C\C(=O)O [Compound 104b, (2E,4E)-3-Methyl-6-(2,3,6,7,8,9-hexahydro-2,2,6,6,9,9-hexamethylbenzo[b]-chromen-4-ylidene)-hexa-2,4-dienoic acid]
EC50 [1]: > 10000 nM
RXR activity / selectivity (in words) [2]: potent and selective RXR compound
EC50 [3]: 83 nM
EC50 [4]: 18 nM
